Data reported in patent US9795561B2, “Combination of umeclidinium, fluticasone propionate and salmeterol xinafoate for use in the treatment of inflammatory or respiratory tract diseases” (Glaxo Group Limited, priority 2012, dated 2017).

Columns and labels:
human M3 receptor = human M3 receptor (Homo sapiens, UniProt P20309); experiment: Reversibility at the human M3 receptor in vitro; type: binding
pre-clinical models = experiment: Duration of action in vivo when administered directly to the lungs in pre-clinical models
[1] = tested on: healthy volunteers and COPD patients; experiment: Clinical pharmacology studies, single inhaled doses, plethysmography (sGaw, Raw) and spirometry (FEV1); type: in vivo, human
Experimental: Several clinical pharmacology studies have been conducted using umeclidinium bromide in both healthy volunteers and COPD patients to investigate the safety, tolerability, pharmacokinetics and pharmacodynamics of this compound. The bronchodilatory effects and duration of action of single inhaled doses of this compound as measured by plethysmography (sGaw, Raw) and spirometry (FEV1) were assessed in some of the above noted studies.

subjects with COPD [2] = experiment: 14-day once-daily dose-ranging study in subjects with COPD; type: in vivo, human
Text: In addition, this study confirmed that umeclidinium bromide has a once-daily profile.

subjects with COPD [3] = experiment: 28-day once-daily dry powder inhaler study in subjects with COPD; type: in vivo, human; details: 125, 250 and 500 mcg once-daily, 28 days
Text: A further study evaluated the efficacy and safety of three doses of umeclidinium (125 mcg, 250 mcg and 500 mcg as umeclidinium bromide) administered once-daily via a dry powder inhaler over a 28 day period in subjects with COPD.

muscarinic receptor = experiment: Muscarinic receptor antagonism, studies in animal models and in humans

Chain of human M3 receptor (P20309 whole entry): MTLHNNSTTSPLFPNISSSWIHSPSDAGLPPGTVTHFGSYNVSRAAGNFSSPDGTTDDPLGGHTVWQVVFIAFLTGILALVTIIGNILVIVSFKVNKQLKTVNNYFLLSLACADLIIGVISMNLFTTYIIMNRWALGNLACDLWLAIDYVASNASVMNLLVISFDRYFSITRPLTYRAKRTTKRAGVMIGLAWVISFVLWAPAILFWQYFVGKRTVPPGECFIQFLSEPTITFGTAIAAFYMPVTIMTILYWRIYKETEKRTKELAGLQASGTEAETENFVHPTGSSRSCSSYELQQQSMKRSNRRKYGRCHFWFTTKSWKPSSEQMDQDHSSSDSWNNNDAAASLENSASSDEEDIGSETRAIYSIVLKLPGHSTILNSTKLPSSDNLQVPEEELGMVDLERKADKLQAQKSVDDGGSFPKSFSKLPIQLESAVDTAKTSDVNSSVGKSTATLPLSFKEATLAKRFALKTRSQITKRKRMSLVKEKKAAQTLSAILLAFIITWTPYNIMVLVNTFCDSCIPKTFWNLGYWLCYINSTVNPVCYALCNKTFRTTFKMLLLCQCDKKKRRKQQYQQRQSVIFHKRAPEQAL

Question: With OC(c1ccccc1)(c1ccccc1)C12CC[N+](CCOCc3ccccc3)(CC1)CC2.[Br-] [umeclidinium bromide, 4-[hydroxy(diphenyl)methyl]-1-{2-[(phenylmethyl)oxy]ethyl}-1-azoniabicyclo[2.2.2]octane bromide] as the molecule, how does the “reversibility at the human M3 receptor” value (human M3 receptor) read?
Answer: slow reversibility

Question: What about the “duration of action in vivo” value (pre-clinical models) of the same molecule?
Answer: long duration of action

Question: And the bronchodilatory effect [1]?
Answer: clinically relevant bronchodilation

Question: What about the duration of action [1] of the same molecule?
Answer: 24 h

Question: What about the “improvement in trough FEV1 versus open label tiotropium (18 mcg once-daily)” value (subjects with COPD [2]; all once-daily doses (62.5-1000 mcg), 14 days) of the same molecule?
Answer: numerically greater improvement

Question: What about the “pulmonary function compared to placebo” value (subjects with COPD [2]; five once-daily doses (62.5, 125, 250, 500, 1000 mcg) over 14 days) of the same molecule?
Answer: statistically significant improvements

Question: And the bronchodilation (subjects with COPD [3])?
Answer: maintaining significant bronchodilation over twenty four hours

Question: And the safety (subjects with COPD [3])?
Answer: appears to be safe

Question: And the “muscarinic receptor antagonist profile” value (muscarinic receptor)?
Answer: long acting high-affinity pan-active muscarinic receptor antagonist
